Where two headings read alike, the source gives them in different places.
Tests used:
[1] = tested on: Saccharomyces cerevisiae; test: MIC/MFC broth microdilution (CLSI); type: cell-based; conditions: Saccharomyces cerevisiae S288c
Protocol: (§1) Antifungal susceptibility was determined by broth microdilution according to the CLSI guidelines described in M27-Ed4 ([16]). […] MFC was determined by back-plating drug-treated cultures from MIC broths onto SDA plates. The MFC was defined as the lowest concentration from which no colonies could be cultured.

[2] = tested on: Candida albicans; test: MIC/MFC broth microdilution (CLSI); type: cell-based; conditions: Candida albicans SC5314
Protocol: as §1

[3] = tested on: Cryptococcus deuterogattii; test: checkerboard drug interaction (FICI, MICc);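 for all read-outs here: simplified diagonal checkerboard screen pairing antifungal drugs with FPPS inhibitors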; type: cell-based; conditions: C. deuterogattii; for INH FD (MIC-MICc fold decrease): fold decrease of inhibitor MIC
Protocol: (§2) Drug interactions between antifungals and FPPS inhibitors were investigated using a simplified checkerboard diagonal screening method ([45]). […] FICIs were determined according to the Loewe additivity model ([17]).

[4] = tested on: Cryptococcus neoformans; test: checkerboard drug interaction (FICI, MICc);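 for all read-outs here: antifungal plus FPPS inhibitor pairs tested against Cryptococcus neoformans by simplified diagonal checkerboard screening, FICI computed under the Loewe additivity model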; type: cell-based; conditions: C. neoformans; for INH FD (MIC-MICc fold decrease): fold decrease of inhibitor MIC
Protocol: as §2

[5] = tested on: Saccharomyces cerevisiae; test: checkerboard drug interaction (FICI, MICc);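 for all read-outs here: simplified diagonal checkerboard screen pairing antifungals with FPPS inhibitors, FICI calculated under the Loewe additivity model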; type: cell-based; design: INH MICc / INH MICc (ITR:INH) / INH MICc (KET:INH) / INH MICc (FLC:INH): unit not given beside the values; conditions: S. cerevisiae; for INH FD (MIC-MICc fold decrease): fold decrease of inhibitor MIC
[6] = tested on: Candida glabrata; test: checkerboard drug interaction (FICI, MICc);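 for all read-outs here: simplified diagonal checkerboard screen pairing antifungals with FPPS inhibitors, FICI calculated under the Loewe additivity model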; type: cell-based; conditions: C. glabrata; for INH FD (MIC-MICc fold decrease): fold decrease of inhibitor MIC
Protocol: as §2

[7] = tested on: Candida albicans; test: checkerboard drug interaction (FICI, MICc);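 for all read-outs here: antifungal plus FPPS inhibitor combinations on Candida albicans tested by a simplified diagonal checkerboard screen, with FICI calculated under the Loewe additivity model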; type: cell-based; conditions: C. albicans; for INH FD (MIC-MICc fold decrease): fold decrease of inhibitor MIC
Protocol: as §2

[8] = tested on: Aspergillus flavus; test: checkerboard drug interaction (FICI, MICc);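 note: simplified diagonal checkerboard screen pairing azole antifungals with FPPS inhibitors, FICI calculated under the Loewe additivity model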; type: cell-based; design: INH MICc (KET:INH) / INH MICc (FLC:INH): unit not given beside the values; conditions: A. flavus
[9] = tested on: Aspergillus fumigatus; test: checkerboard drug interaction (FICI, MICc);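 for all read-outs here: simplified diagonal checkerboard screen pairing antifungals with FPPS inhibitors against Aspergillus fumigatus, with FICI calculated under the Loewe additivity model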; type: cell-based; conditions: A. fumigatus; for INH FD (MIC-MICc fold decrease): fold decrease of inhibitor MIC
Protocol: as §2

[10] = tested on: Trichophyton rubrum; test: checkerboard drug interaction (FICI, MICc);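 note: simplified diagonal checkerboard screen pairing azole antifungals with FPPS inhibitors, FICI calculated under the Loewe additivity model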; type: cell-based; conditions: T. rubrum
Protocol: as §2

[11] = tested on: HEK-293T cells; test: MTT reduction cytotoxicity assay; type: cell-based; conditions: Homo sapiens, HEK-293T, 72 h, HEK-293T, MTT, 72 h; read-out: HEK IC50
[12] = tested on: eight fungal species; test: MIC/MFC summary across the eight fungal species of Table 1; type: cell-based
Protocol: The antifungal activity of these compounds was evaluated according to CLSI guidelines ([16]).

[13] = tested on: eight fungal species; test: checkerboard interaction with azoles, summary across the eight species; type: cell-based; conditions: geometric mean MIC in combination with azoles
Description: Synergy between lipophilic FPPS inhibitors and azole antifungals was investigated by determining the fractional inhibitory concentration index (FICI) (Fig. 2; Table S1 Fig. S1) ([17]). […]. Derivatives PLA9 and 11, and PDA9, 11, and 12 antagonized azoles in C. albicans, C. neoformans, and C. deuterogattii, yet were largely synergistic in C. glabrata and S. cerevisiae. […].

[14] = tested on: Cryptococcus deuterogattii; test: MIC/MFC broth microdilution (CLSI); conditions: Cryptococcus deuterogattii;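 note: broth microdilution per CLSI M27-Ed4. MFC is the lowest concentration yielding no colonies when MIC broths are subcultured onto SDA plates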
Protocol: as §1

[15] = tested on: Cryptococcus neoformans; test: MIC/MFC broth microdilution (CLSI); conditions: Cryptococcus neoformans;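 note: susceptibility testing followed the CLSI M27-Ed4 broth microdilution document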
Protocol: as §1

[16] = tested on: Candida glabrata; test: MIC/MFC broth microdilution (CLSI); conditions: Nakaseomyces glabratus, CBS138;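 note: broth microdilution following CLSI M27-Ed4, MFC taken as the lowest drug level yielding no growth once MIC wells were subcultured on SDA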
Protocol: as §1

[17] = tested on: Aspergillus flavus; test: MIC/MFC broth microdilution (CLSI); conditions: ATCC204304
Protocol: as §1

[18] = tested on: Aspergillus fumigatus; test: MIC/MFC broth microdilution (CLSI); conditions: ATCC204305
Protocol: as §1

[19] = tested on: Trichophyton rubrum; test: MIC/MFC broth microdilution (CLSI); conditions: Trichophyton rubrum
Protocol: as §1

[20] = FLC:INH combination, MIC of the inhibitor in combination with FLC
[21] = FLC:INH combination, fold decrease of FLC MIC
[22] = ITR:INH combination, MIC of the inhibitor in combination with ITR
[23] = ITR:INH combination, fold decrease of ITR MIC
[24] = KET:INH combination, MIC of the inhibitor in combination with KET
[25] = KET:INH combination, fold decrease of KET MIC
[26] = FLC:INH combination, MIC of FLC in combination with the inhibitor
[27] = ITR:INH combination, MIC of ITR in combination with the inhibitor
[28] = KET:INH combination, MIC of KET in combination with the inhibitor
[29] = Fractional Inhibitory Concentration Index, fluconazole + inhibitor
[30] = Fractional Inhibitory Concentration Index, itraconazole + inhibitor
[31] = Fractional Inhibitory Concentration Index, ketoconazole + inhibitor
[32] = MIC of the inhibitor in combination with fluconazole
[33] = MIC of the inhibitor in combination with itraconazole
[34] = MIC of the inhibitor in combination with ketoconazole
[35] = MIC-MICc fold decrease of fluconazole, negative = increase
[36] = MIC-MICc fold decrease of itraconazole, negative = increase
[37] = MIC-MICc fold decrease of ketoconazole, negative = increase
[38] = MIC-MICc fold decrease of the inhibitor, with fluconazole
[39] = MIC-MICc fold decrease of the inhibitor, with itraconazole
[40] = MIC-MICc fold decrease of the inhibitor, with ketoconazole

CCCCCCCCCN1CCC[C@H]1C(=O)N[C@@H](CC(=O)O)C(=O)O [PLA9]
8: KET FD (MIC-MICc fold decrease) [5, 25]
-2: FLC FD (FLC:INH) [10, 35]
0.25: KET MICc [5, 28]
> 128 µg/mL: MFC [1] | MIC [1] | MFC [2] | MIC [2] | MFC ([12]; across eight species, read-out: Geometric mean MFC) | MIC ([12]; geometric mean across eight species, read-out: GM fungal MIC) | MIC ([12]; read-out: Geometric mean MIC) | MFC [14] | MIC [14] | MFC [15] | MIC [15] | MFC [16] | MIC [16] | MFC [17] | MIC [17] | MFC [18] | MIC [18] | MFC [19] | MIC [19]
> 256 µg/mL: IC50 [11]
53.8: GM fungal MICc [13]
2: KET FD (MIC-MICc fold decrease) [3, 25] | INH FD (MIC-MICc fold decrease) ([3]; KET:INH combination) | INH FD (MIC-MICc fold decrease) ([4]; ITR:INH combination) | INH FD (MIC-MICc fold decrease) ([4]; KET:INH combination) | INH MICc [6, 22] | INH MICc [6, 24] | ITR FD (MIC-MICc fold decrease) [7, 23] | FICI (FLC:INH) [8, 29] | KET FD (KET:INH) [8, 37] | INH FD (ITR:INH) [8, 39] | INH FD (KET:INH) [8, 40] | FICI ([9]; FLC:INH combination) | INH MICc [9, 22] | ITR FD (MIC-MICc fold decrease) [9, 23] | INH FD (MIC-MICc fold decrease) ([9]; KET:INH combination) | FICI (ITR:INH) [10, 30] | INH FD (KET:INH) [10, 40]
16: INH MICc [5, 20] | INH FD (MIC-MICc fold decrease) ([5]; FLC:INH combination) | INH MICc [5, 24] | INH FD (MIC-MICc fold decrease) ([5]; KET:INH combination)
3: FICI (FLC:INH) [10, 29]
< -4: ITR FD (MIC-MICc fold decrease) [3, 23] | FLC FD (MIC-MICc fold decrease) [4, 21] | FLC FD (MIC-MICc fold decrease) [7, 21] | KET FD (MIC-MICc fold decrease) [7, 25]
128: INH MICc [3, 24] | INH MICc [4, 22] | INH MICc [4, 24] | INH FD (MIC-MICc fold decrease) ([6]; ITR:INH combination) | INH FD (MIC-MICc fold decrease) ([6]; KET:INH combination) | INH MICc (ITR:INH) [8, 33] | INH MICc (KET:INH) [8, 34] | FLC MICc [9, 26] | INH FD (MIC-MICc fold decrease) ([9]; ITR:INH combination) | INH MICc [9, 24] | INH MICc (KET:INH) [10, 34]
≥4: FICI ([3]; FLC:INH combination) | FICI ([3]; ITR:INH combination) | FICI ([4]; FLC:INH combination) | FICI ([4]; ITR:INH combination) | FICI ([4]; KET:INH combination) | FICI ([7]; FLC:INH combination) | FICI ([7]; KET:INH combination)
4: FLC FD (MIC-MICc fold decrease) [5, 21] | ITR FD (MIC-MICc fold decrease) [5, 23] | INH FD (MIC-MICc fold decrease) ([5]; ITR:INH combination) | INH MICc [6, 20] | FLC FD (MIC-MICc fold decrease) [6, 21] | ITR FD (MIC-MICc fold decrease) [6, 23] | KET FD (MIC-MICc fold decrease) [6, 25] | INH FD (MIC-MICc fold decrease) ([7]; FLC:INH combination) | INH MICc [7, 22] | INH FD (MIC-MICc fold decrease) ([7]; KET:INH combination) | KET MICc [9, 28]
-4: FLC FD (MIC-MICc fold decrease) [3, 21] | ITR FD (MIC-MICc fold decrease) [4, 23] | KET FD (MIC-MICc fold decrease) [4, 25]
0.5: FICI ([5]; ITR:INH combination)
0.52: FICI ([7]; ITR:INH combination)
1.5: FICI (ITR:INH) [8, 30] | FICI ([9]; KET:INH combination) | FICI (KET:INH) [10, 31]
0.51: FICI ([9]; ITR:INH combination)
256: INH MICc [3, 20] | INH MICc [3, 22] | INH MICc [4, 20] | INH MICc (FLC:INH) [8, 32] | INH MICc [9, 20] | INH MICc (FLC:INH) [10, 32] | INH MICc (ITR:INH) [10, 33]
64: INH MICc [5, 22] | INH FD (MIC-MICc fold decrease) ([6]; FLC:INH combination) | INH MICc [7, 20] | INH FD (MIC-MICc fold decrease) ([7]; ITR:INH combination) | INH MICc [7, 24]
0.31: FICI ([5]; FLC:INH combination) | FICI ([6]; FLC:INH combination)
0.19: FICI ([5]; KET:INH combination)
1: INH FD (MIC-MICc fold decrease) ([3]; FLC:INH combination) | INH FD (MIC-MICc fold decrease) ([3]; ITR:INH combination) | FICI ([3]; KET:INH combination) | INH FD (MIC-MICc fold decrease) ([4]; FLC:INH combination) | FLC MICc [5, 26] | FICI (KET:INH) [8, 31] | FLC FD (FLC:INH) [8, 35] | ITR FD (ITR:INH) [8, 36] | INH FD (FLC:INH) [8, 38] | FLC FD (MIC-MICc fold decrease) [9, 21] | INH FD (MIC-MICc fold decrease) ([9]; FLC:INH combination) | KET FD (MIC-MICc fold decrease) [9, 25] | ITR FD (ITR:INH) [10, 36] | KET FD (KET:INH) [10, 37] | INH FD (FLC:INH) [10, 38] | INH FD (ITR:INH) [10, 39]
0.28: FICI ([6]; ITR:INH combination) | FICI ([6]; KET:INH combination)
0.063: ITR MICc [5, 27] | ITR MICc [9, 27]

From PMC12892976, “Alkylation-based optimization of antifungal FPPS inhibitors yields a potent, broad-spectrum lipophilic zoledronate derivative” (mBio, 2025)
